SMILES strings stand for the structures. Where “and” joins values, the source holds several entries; their conditions need not be identical. Equal values may be shown once.

The results in this text go back to the Deep4Chem optical property database.

A short description of the series: solvent given as SMILES.

In the case of `COc1ccccc1-c1nc2c3ccccc3c3ccccc3c2n1-c1ccc(C)cc1`, the emission maximum (in Cc1ccccc1) turned out to be 371 nm.

For the molecule `CCCCC1(CCCC)c2cc(-c3ccc(C=C4C(=O)c5ccccc5C4=O)cc3)ccc2-c2ccc(-c3ccc(C=C4C(=O)c5ccccc5C4=O)cc3)cc21`, the emission maximum by setting is: (in C1CCOC1) 532 nm; (in CC(C)=O) 564 nm; (in CCCCCC) 465 nm; (in CS(C)=O) 596 nm; (in Cc1ccccc1) 492 nm; (in ClC(Cl)Cl) 527 nm.

Where the note is “in CCCCCC”, `CC(C)[Si](C#Cc1c2cc3ccccc3cc2c(C#C[Si](C(C)C)(C(C)C)C(C)C)c2nc3c(ccc4cc5ccccc5cc43)nc12)(C(C)C)C(C)C` gave an emission maximum of 654 nm.

With `CC(C)(C)c1ccc(C2=C(c3ccc(C(C)(C)C)cc3)C(c3ccc(C(C)(C)C)cc3)=[N+]3C2=C(c2ccccc2)c2c(-c4ccc(C(C)(C)C)cc4)c(-c4ccc(C(C)(C)C)cc4)c(-c4ccc(C(C)(C)C)cc4)n2[B-]3(F)F)cc1`, the emission maximum is given as 634 nm (in C1CCCCC1); 637 nm (in C1CCOC1); 629 nm (in CC#N); 639 nm (in Cc1ccccc1); 636 nm (in ClCCl).

The molecule `N#Cc1c(-n2c3ccc(-c4ccccc4)cc3c3cc(-c4ccccc4)ccc32)c(-n2c3ccccc3c3ccccc32)c(-n2c3ccc(-c4ccccc4)cc3c3cc(-c4ccccc4)ccc32)c(-n2c3ccccc3c3ccccc32)c1-n1c2ccc(-c3ccccc3)cc2c2cc(-c3ccccc3)ccc21` yielded an emission maximum (in Cc1ccccc1) of 492 nm.

Consider `CN(C)c1ccc2nc(-c3ccccc3)sc2c1`, for which the emission maximum runs as follows: (in C1CCCCC1) 393 nm; (in CC#N) 474 nm and 475 nm; (in CC(C)O) 468 nm and 488.03 nm; (in CO) 484 nm and 483 nm; (in CS(C)=O) 486 nm and 486.82 nm; (in ClC(Cl)Cl) 442 nm and 443 nm. In addition, the emission maximum (in c1ccccc1) was 429 nm and 441.38 nm.

For `c1ccc2cc(-c3cc(-c4nccs4)nc(-c4nccs4)c3)ccc2c1`, the emission maximum runs as follows: (in CC#N) 385 nm; (in CCCCCC) 361 nm; (in CO) 392 nm; (in ClC(Cl)Cl) 372 nm.

Where the note is “in CO”, `Oc1ccc(-c2nc(-c3ccccc3)c(-c3ccccc3)[nH]2)cc1` returned an emission maximum of 400 nm.

For `CCOC(=O)CN(CC(=O)OCC)c1ccc(-c2cc(-c3ccncc3)nc(-c3ccncc3)c2)cc1`, the emission maximum by setting is: (in CC#N) 482 nm; (in CCOC(C)=O) 438 nm; (in CN(C)C=O) 490 nm; (in CS(C)=O) 496 nm; (in c1ccccc1) 412 nm.

As for `CCC1(CC)c2ccccc2-c2c1c1c(c3c2C(CC)(CC)c2cc(/C=C/c4cccs4)ccc2-3)C(CC)(CC)c2cc(/C=C/c3cccs3)ccc2-1`, the emission maximum (in C1CCOC1) is on record as 397 nm.

As to `COc1ccc2cc3c(C)cc(=O)oc3cc2c1`, the emission maximum by setting is: (in CC#N) 453 nm; (in CCO) 464 nm; (in CCOC(C)=O) 435 nm; (in CO) 469 nm; (in ClC(Cl)Cl) 443 nm; (in OCC(F)(F)F) 496 nm.

As to `O=C(O)c1ccc2cc3cc(C(=O)O)ccc3cc2c1`, the emission maximum reads like this: (in C1CCOC1) 419 nm; (in CN(C)C=O) 423 nm.

As to `CCOC(=O)c1c(-c2cc3ccc(OC)cc3oc2=O)nn(-c2cccc(Cl)c2)c1C(=O)OCC`, the emission maximum (in ClCCl) was 422 nm.

As for `CC(C)(C)c1ccc2c(c1)c1cc(C(C)(C)C)ccc1n2-c1ccc(-c2nc(-c3ccc(-n4c5ccc(C(C)(C)C)cc5c5cc(C(C)(C)C)ccc54)cc3)nc(-c3ccc(P(=O)(c4ccccc4)c4ccccc4)cc3)n2)cc1`, the emission maximum was 501.73 nm (in C1CCOC1); 543.52 nm (in CC#N); 525.92 nm (in CC(C)=O); 574.19 nm (in CN(C)C=O); 474.19 nm (in Cc1ccccc1); 526.57 nm (in ClCCl). The molecule further gave an emission maximum (in O=P(c1ccccc1)(c1ccccc1)c1ccccc1Oc1ccccc1P(=O)(c1ccccc1)c1ccccc1) of 492 nm.

The molecule `Cc1c2ccc3c(C)[n+](C)ccc3c2cc[n+]1C` registered an emission maximum (in CC#N) of 408 nm.

In turn, `COC(=O)c1ccc(C(=O)NC(C)(C)C)c2c1ccc1c3ccccc3c3ccccc3c12` showed an emission maximum (in ClCCl) of 448 nm.

As to `N#Cc1ccc(N2c3ccccc3C(c3ccccc3)(c3ccccc3)c3ccccc32)cc1`, the emission maximum (in Cc1ccccc1) was 428 nm.

In the case of `Brc1ccc(N(c2ccc(/C=C/c3ccncn3)cc2)c2ccc(/C=C/c3ccncn3)cc2)cc1`, for the setting “in ClCCl”, the emission maximum stood at 555 nm.

In the case of `CCCCCCCCCCCCn1cccc1/C=C/c1ccc(/C=C/c2cccn2CCCCCCCCCCCC)cc1`, the emission maximum (in Cc1ccccc1) amounted to 443 nm.

As to `Cc1ccc(-c2ccc3ccc4cc(C(C)(C)C)cc5ccc2c3c45)cc1`, the emission maximum is on record as 384 nm (in C1CCOC1) and 384 nm (in ClCCl).

As for `c1ccc2c(c1)[nH]c1ccccc12`, the emission maximum is on record as 340 nm (in CC#N), 332 nm (in CCCCCC) and 339 nm (in CCO).

As to `N#C/C(=C\c1ccc(C#N)cc1)c1nc(-c2ccccc2)cs1`, the emission maximum reads like this: (in CC#N) 501 nm; (in CCO) 500 nm; (in CN(C)C=O) 507 nm; (in Cc1ccccc1) 472 nm; (in ClCCl) 490 nm.

The molecule `COc1ccc(-n2nc(C(=O)c3ccc(Cl)cc3)c(N3CCCC3)n2)cc1` yielded an emission maximum (in CC#N) of 421 nm.

As to `F[B-]1(F)n2c(c3cc4ccccc4cc3c2-c2ccccc2)C=C2c3cc4ccccc4cc3C(c3ccccc3)=[N+]21`, the emission maximum (in C1CCOC1) was determined as 782 nm, the emission maximum (in CN(C)C=O) was determined as 788 nm, the emission maximum (in ClCCl) came out at 785 nm and the emission maximum (in c1ccccc1) is given as 785 nm.

Consider `COc1ccc2c(c1)N(c1ccccc1-c1ccccc1)c1cc3c(cc1=N2)Oc1c(cc(C(C)(C)C)cc1C(C)(C)C)N=3`, for which the emission maximum is, setting by setting: (in CC#N) 619 nm; (in CCCCCC) 583 nm; (in CO) 636 nm.

For `C[n+]1ccc(-c2cc[n+](C)cc2)cc1`, the emission maximum (in CC#N) is given as 353 nm.

The molecule `c1ccc2c(c1)CCc1ccccc1N2c1c2ccccc2cc2ccccc12` came in with an emission maximum (in Cc1ccccc1) of 507 nm.

Consider `c1cc2c3c(cccc3c1)-c1c-2c2c3ccccc3c3ccc4c5c6c(c7c8ccccc8c8ccc9c%10c%11c(c%12c%13ccccc%13c%13ccc%14c1c1c2c3c4c2c1c1c%14c%13c%12c%10c1c1c9c8c7c5c21)-c1cccc2cccc-%11c12)-c1cccc2cccc-6c12`, for which the emission maximum (in C1CCOC1) was 594 nm.

Take `CC1=CC(C)=[N+]2C1=C(c1ccc(N3CCCCC3)cc1)c1c(C)cc(C)n1[B-]2(F)F`: the emission maximum by setting is: (in C1CCOC1) 515 nm; (in CC#N) 511 nm; (in CC(=O)C(C)(C)C) 516 nm; (in CC(C)=O) 515 nm; (in CCCCCC) 511 nm; (in CCOC(C)=O) 515 nm. For the same molecule, the emission maximum (in CO) was found to be 514 nm.

Consider `c1cc2c3cscc3c3ccsc3c2s1`, for which, where the note is “in ClC(Cl)Cl”, the emission maximum is 395 nm.

Take `C[P+]1(c2ccccc2)c2ccccc2-c2sc3ccccc3c21` (stereo not drawn): the emission maximum reads like this: (in CC#N) 442 nm; (in CCO) 442 nm; (in ClCCl) 445 nm.

On to `c1ccc2cc(-c3c4ccccc4c(-c4ccc(-n5c6ccccc6c6ccccc65)cc4)c4ccccc34)ccc2c1`, for which, for the setting “in ClCCl”, the emission maximum stood at 427 nm.

Regarding `O=C(O)c1ccc(-c2nc(-c3ccccc3)c3c4ccccc4ccn23)cc1`, under “in CC#N”, the emission maximum worked out at 473 nm.

Under “in C1CCOC1”, `N#Cc1c(N2CCCC2)cc(-c2ccccc2)c2c1-c1ccccc1C2=O` returned an emission maximum of 527 nm.

Take `COc1ccccc1C1=C2C(C)=CC(C)=[N+]2[B-](F)(F)n2c(C)cc(C)c21`: the emission maximum runs as follows: (in C1CCOC1) 516 nm; (in CC#N) 512 nm; (in CC(=O)C(C)(C)C) 514 nm; (in CC(C)=O) 513 nm; (in CCCCCC) 516 nm; (in CCOC(C)=O) 514 nm. For the setting “in CO”, this molecule displayed an emission maximum of 514 nm.

Where the note is “in ClCCl”, `C(S/C=C/c1ccc(-c2ccc(/C=C/SC=C3CCCCC3)cc2)cc1)=C1CCCCC1` registered an emission maximum of 433 nm.

`CCCCCCOc1ccc(N(c2ccc(OCCCCCC)cc2)c2ccc(-c3sc(-c4ccc(N(c5ccc(OCCCCCC)cc5)c5ccc(OCCCCCC)cc5)cc4)c4nc(CC)c(CC)nc34)cc2)cc1` yielded an emission maximum (in ClCCl) of 725 nm.

`Cc1ccc2nc(-c3cccc4nc(C)[nH]c(=O)c34)[nH]c2c1` had an emission maximum (in CN(C)C=O) of 431 nm.

Consider `COc1cccc(/C=C/c2ccccc2)c1`, for which the emission maximum is, setting by setting: (in C1CCCCC1) 358 nm; (in CC#N) 359 nm; (in CC(C)O) 357 nm; (in CCCCOCCCC) 358 nm; (in CCOC(C)=O) 358 nm; (in CCOCC) 357 nm.

In the case of `N#CC(C#N)=Cc1ccc(-c2ccc(N(c3ccccc3)c3ccccc3)cc2)cc1`, the emission maximum (in ClC(Cl)Cl) is 634 nm.

Turning to `N#Cc1c(N2CCCCC2)cc(-c2ccc3ccccc3c2)c2c1-c1ccccc1C2`, the emission maximum (in C1CCOC1) was found to be 462 nm.

With `N#Cc1nc2c3ccc(N(c4ccccc4)c4ccccc4)cc3c3cc(N(c4ccccc4)c4ccccc4)ccc3c2nc1C#N`, the emission maximum came out at 586.91 nm (in C1COCCO1); 515.27 nm (in CCCCCC); 566 nm (in Cc1ccccc1); 639.45 nm (in ClC(Cl)Cl); 606 nm (in O=P(c1ccccc1)(c1ccccc1)c1cccc(-c2cc(-n3c4ccccc4c4ccccc43)cc(-n3c4ccccc4c4ccccc43)c2)n1).

As to `S=c1[nH]nc(-c2ccc(/C=C/c3ccc(-c4n[nH]c(=S)o4)cc3)cc2)o1`, under “in CN(C)C=O”, the emission maximum was 401 nm.

The molecule `COc1c2ccccc2c(OC)c2c(C#CC(C)(C)C)c3cc4ccccc4cc3c(C#CC(C)(C)C)c12` displayed an emission maximum (in ClCCl) of 682 nm.
